# Test results reported in US20070243161A1, “Epigenetic modification of the loci for CAMTA1 and/or FOXP3 as a marker for cancer treatment” (priority 2006, published 2007).
# How the values were obtained:
# [1] = system: foxp3 locus; assay: Bisulphite sequencing of the foxp3 locus in CD25-CD4+ T cells cultured with TGF-β; type: cell-based, BALB/c mice
# From the text: D4+ T cells were isolated from pooled spleen and LN single cell suspensions by using anti CD4-FITC plus anti FITC multisort microbeads and the AutoMACS magnetic separation system (Miltenyi Biotec). After release of beads according to the manufacturer's instructions, CD25+ cells were depleted by using anti CD25-APC plus anti APC microbeads. To avoid the expansion of pre-committed Foxp3+ Tregs, the inventors excluded the majority of residual Foxp3+ Tregs from the CD25−CD4+ T cell fraction by sorting for CD62L^high cells using anti CD62L microbeads. MACS-sorted CD62L^highCD25−CD4+ T cells were stimulated for 3 days using plate bound anti CD3 (6 μg/ml) and anti CD28 (4 μg/ml). For Th1 cultures 5 μg/ml anti-IL-4, 20 ng/ml IFN-γ and 5 ng/ml IL-12 was added to the medium. For TGF-β cultures 5 ng/ml TGF-β and 10 ng/ml IL-2 was used. After 3 days, cells were removed from the stimulus, transferred to non-coated plates and cultured for another 3 days. All cell culture was done with RPMI 1640 (Gibco) supplemented with 10% FCS (Sigma). On day 6, cultured cells were stained using anti CD25-APC and sorted for CD25+ cells by FACS (Aria). Foxp3 expression of sorted CD25+ cells was analyzed by intracellular staining. For restimulation experiments sorted CD25+ cells were stimulated for 3 days using plate bound anti CD3 (6 μg/ml) and anti CD28 (4 μg/ml) plus IL-2 (10 ng/ml). After 3 days, cells were removed from the stimulus, transferred to non-coated plates and cultured for another 3 days. On day 6, cultured cells were stained for CD25 and Foxp3 as described above.
# Genomic DNA was isolated from purified T cells using the DNeasy tissue kit (Qiagen) following the supplier's recommendations. Sodium bisulphite treatment of genomic DNA was performed according to Olek et al. (Olek, A., Oswald, J. and Walter, J. A modified and improved method for bisulphite based cytosine methylation analysis. Nucleic Acids Res 24, 5064-6 (1996)) with minor modifications, resulting in the deamination of unmethylated cytosines to uracil, whereas methylated cytosines remain unchanged. In a subsequent PCR amplification uracils were replicated as thymidines. Thus, detection of a “C” in sequencing reactions reflects methylation of the genomic DNA at that site. Detection of a “T” at the same site instead reflects the absence of a methyl modification of the genomic cytosine.
# PCRs were performed on MJ Research thermocyclers (Waltham) in a final volume of 25 μl containing 1×PCR Buffer, 1 U Taq DNA polymerase (Qiagen), 200 μM dNTPs, 12.5 pmol each of forward and reverse primers, and 7 ng of bisulphite-treated genomic DNA. The amplification conditions were 95° C. for 15 min and 40 cycles of 95° C. for 1 min, 55° C. for 45 sec and 72° C. for 1 min and a final extension step of 10 min at 72° C. PCR products were purified using ExoSAP-IT USB Corp.) and sequenced in both directions applying the PCR primers and the ABI Big Dye Terminator v1.1 cycle sequencing chemistry (Applied Biosystems) followed by capillary electrophoresis on an ABI 3100 genetic analyzer. Trace files were interpreted using ESME, which normalizes sequence traces, corrects for incomplete bisulphite conversion and allows for quantification of methylation signals (Lewin, J., Schmitt, A. O., Adorjan, P., Hildmann, T. and Piepenbrock, C. Quantitative DNA methylation analysis based on four-dye trace data from direct sequencing of PCR amplificates. Bioinformatics 20, 3005-12 (2004)). For each sample both PCR amplification and sequencing was repeated once. The following primers (5′ to 3′ direction) were used for both PCR amplification of bisulphite converted genomic DNA and sequence reactions: […]
# [2] = system: Foxp3; assay: Intracellular Foxp3 expression by FACS in TGF-β-cultured CD25-CD4+ T cells; type: cell-based, BALB/c mice
# Procedure: Cytometric analysis was performed as previously described (Huehn, J. et al. Developmental stage, phenotype and migration distinguish naive- and effector/memory-like CD4+ regulatory T cells. J Exp Med 199, 303-313 (2004)) using a FACS Calibur or a LSRII (BD Biosciences) and the CellQuest™ software. Dead cells were excluded by PI (propidium iodide) or DAPI (diamidophenylindole) staining (Sigma). Intracellular Foxp3 staining was performed with the PE anti-mouse Foxp3 staining set according to the manufacturers instructions.
# D4+ T cells were isolated from pooled spleen and LN single cell suspensions by using anti CD4-FITC plus anti FITC multisort microbeads and the AutoMACS magnetic separation system (Miltenyi Biotec). After release of beads according to the manufacturer's instructions, CD25+ cells were depleted by using anti CD25-APC plus anti APC microbeads. To avoid the expansion of pre-committed Foxp3+ Tregs, the inventors excluded the majority of residual Foxp3+ Tregs from the CD25−CD4+ T cell fraction by sorting for CD62L^high cells using anti CD62L microbeads. MACS-sorted CD62L^highCD25−CD4+ T cells were stimulated for 3 days using plate bound anti CD3 (6 μg/ml) and anti CD28 (4 μg/ml). For Th1 cultures 5 μg/ml anti-IL-4, 20 ng/ml IFN-γ and 5 ng/ml IL-12 was added to the medium. […] Foxp3 expression of sorted CD25+ cells was analyzed by intracellular staining. […]
# [3] = cell culture in the presence of TGF-β
# [4] = sorted CD25+ cells, day 6 TGF-β culture, exp. 1
# [5] = sorted CD25+ cells, day 6 TGF-β culture, exp. 2
substance,measurement,setting,value
TGF-β: cytokine (R and D Systems) added at 5 ng/ml with IL-2 to induce Foxp3+ Tregs from CD25-CD4+ T cells,methylation of CpG motifs in amplicons 3 and 4,[1]; [3],fully methylated
same,methylation of CpG motifs within region covered by amplicons 1 and 2,[1]; [3],clearly visible demethylation
same,"degree of methylation, CpG motif amplicon 1 (158)",[1]; [4],100%
same,"degree of methylation, CpG motif amplicon 1 (180)",[1]; [4],92%
same,"degree of methylation, CpG motif amplicon 1 (308)",[1]; [4],63%
same,"degree of methylation, CpG motif amplicon 1 (344)",[1]; [4],41%
same,"degree of methylation, CpG motif amplicon 1 (360)",[1]; [4],60%
same,"degree of methylation, CpG motif amplicon 1 (394)",[1]; [4],28%
same,"degree of methylation, CpG motif amplicon 1 (421)",[1]; [4],42%
same,"degree of methylation, CpG motif amplicon 1 (426)",[1]; [4],48%
same,"degree of methylation, CpG motif amplicon 2 (205)",[1]; [4],74%
same,"degree of methylation, CpG motif amplicon 2 (224)",[1]; [4],72%
same,"degree of methylation, CpG motif amplicon 2 (228)",[1]; [4],100%
same,"degree of methylation, CpG motif amplicon 2 (236)",[1]; [4],75%
same,"degree of methylation, CpG motif amplicon 2 (298)",[1]; [4],64%
same,"degree of methylation, CpG motif amplicon 2 (368)",[1]; [4],39%
same,"degree of methylation, CpG motif amplicon 3 (93)",[1]; [4],100%
same,"degree of methylation, CpG motif amplicon 3 (170)",[1]; [4],100%
same,"degree of methylation, CpG motif amplicon 3 (173)",[1]; [4],100%
same,"degree of methylation, CpG motif amplicon 3 (176)",[1]; [4],100%
same,"degree of methylation, CpG motif amplicon 3 (281)",[1]; [4],100%
same,"degree of methylation, CpG motif amplicon 4 (69)",[1]; [4],100%
same,"degree of methylation, CpG motif amplicon 4 (311)",[1]; [4],100%
same,"degree of methylation, CpG motif amplicon 4 (315)",[1]; [4],100%
same,"degree of methylation, CpG motif amplicon 4 (319)",[1]; [4],100%
same,"degree of methylation, CpG motif amplicon 4 (338)",[1]; [4],90%
same,"degree of methylation, CpG motif amplicon 4 (371)",[1]; [4],100%
same,"degree of methylation, CpG motif amplicon 1 (158)",[1]; [5],100%
same,"degree of methylation, CpG motif amplicon 1 (180)",[1]; [5],93%
same,"degree of methylation, CpG motif amplicon 1 (308)",[1]; [5],75%
same,"degree of methylation, CpG motif amplicon 1 (344)",[1]; [5],41%
same,"degree of methylation, CpG motif amplicon 1 (360)",[1]; [5],70%
same,"degree of methylation, CpG motif amplicon 1 (394)",[1]; [5],38%
same,"degree of methylation, CpG motif amplicon 2 (205)",[1]; [5],67.5%
same,"degree of methylation, CpG motif amplicon 2 (224)",[1]; [5],75%
same,"degree of methylation, CpG motif amplicon 2 (228)",[1]; [5],90%
same,"degree of methylation, CpG motif amplicon 2 (236)",[1]; [5],66%
same,"degree of methylation, CpG motif amplicon 2 (298)",[1]; [5],43%
same,"degree of methylation, CpG motif amplicon 2 (368)",[1]; [5],50%
same,"degree of methylation, CpG motif amplicon 3 (170)",[1]; [5],100%
same,"degree of methylation, CpG motif amplicon 3 (173)",[1]; [5],100%
same,"degree of methylation, CpG motif amplicon 3 (176)",[1]; [5],100%
same,"degree of methylation, CpG motif amplicon 3 (281)",[1]; [5],96%
same,"degree of methylation, CpG motif amplicon 4 (69)",[1]; [5],100%
same,"degree of methylation, CpG motif amplicon 4 (311)",[1]; [5],100%
same,"degree of methylation, CpG motif amplicon 4 (315)",[1]; [5],100%
same,"degree of methylation, CpG motif amplicon 4 (319)",[1]; [5],100%
same,"degree of methylation, CpG motif amplicon 4 (338)",[1]; [5],100%
same,"degree of methylation, CpG motif amplicon 4 (371)",[1]; [5],100%
same,Foxp3+ cells among TGF-β-cultured cells,"[2]; CD25-CD4+ T cells activated and cultured 6 days with TGF-β, day 6",> 98%
same,Foxp3 expression after restimulation,[2]; TGF-β-induced Tregs restimulated 6 days in the absence of TGF-β,lost Foxp3 expression
